From patent US6592885B2, “Method for making infection-resistant fabricated textile articles for biomedical applications” (priority 2001, dated 2003)

Key:
[1] = Structural stability to heating conditions, dye bath analysis via HPLC; type: physicochemical; conditions: heating conditions utilized in pad/heat dyeing; data not shown
[2] = tested on: S. aureus; test: MIC/MBC of native and heated Cipro/Oflox (heat stability); type: cell-based; conditions: Staphylococcus aureus, n=6; for MIC: 10^6 S. aureus/ml, TSB; for MBC: broth backplated on agar
Experimental: An inoculum of S. aureus was diluted to obtain a bacterial concentration of 10^6 S. aureus/ml. […] V. Mosby, St. Louis, 1986]. Antibiotic concentrations in the assay were […].

[3] = antibiotic heated to 135° C. for 1 hour (dye bath conditions), 24 hours

Row | structural stability upon dye bath analysis via HPLC [1] | MIC [2, 3] [µM] | MIC ([2]; native antibiotic, turbidity after 24 hours) [µM] | SMILES | MBC [2, 3] [µM] | MBC ([2]; native antibiotic, 24 hours) [µM]
1 | no structural degradation | 0.78 | 0.78 | CC1COc2c(N3CCN(C)CC3)c(F)cc3c(=O)c(C(=O)O)cn1c23 (stereo not shown) [Oflox, Ofloxacin] | 9.5 | 9.5
2 |  |  |  | O=C(O)c1cn(C2CC2)c2cc(N3CCNCC3)c(F)cc2c1=O [Cipro, Ciprofloxacin] | 6.5 | 6.5
